Data published in US20160214958A1, “COMPOUNDS AND USE FOR TREATING CANCER” (GLIONOVA AB, priority 2013, published 2016).

Experiments:
[1] = system: S10-resistant GSCs (U3013MG); assay: Viability of S10-resistant GSCs surviving the shRNA screen; assay type: cell-based; conditions: Homo sapiens, cells surviving 14 μM S10 after shRNA library transduction, read-out: EC50 on GSC viability, S10-resistant GSCs
Description: A genome wide screen with shRNA libraries was used to identify pathways for S10 induced macropinocytosis. The approach was based on the idea that depleting a key factor in the pathway should render GSCs refractive to S10 induced death. Three different DECIPHER pooled lentiviral shRNA libraries consisting of 82500 shRNA covering 15377 genes grouped into Human Module 1 (genes associated with various signaling pathways), Human Module 2 (disease-associated genes) and Human Module 3 (genes associated with cell surface, extracellular and DNA binding), were used to transduce U3013MG GSCs. Four days later, 14 μM S10 was added for one day after which cells were cultured in standard medium for five month. Surviving cells were thereafter dissociated and further expanded. […] Phospho-MKK4 increased within 5 min of S10 exposure and remained at similar levels for at least 26 hrs of stimulation. Abrogation of MAP2K4 activity by five independent shRNAs led to marked increase of the EC50 viability value of S10-treated GSC. […] MKK4 was thereafter confirmed as a required protein for S10 induced macropinocytosis. […] Thus, the distinctive feature of susceptibility to macropinocytosis and death in GSCs require MKK4 activity.
GSCs grown to 70% confluency were transduced by DECIPHER pooled lentiviral shRNA libraries consisting of Human Module 1, 2 and 3 using earlier described protocols (Pasini et al., 2008). […]

[2] = system: U3013M GSCs intracranial tumor; assay: Mouse xenograft experiment, intracranial infusion by osmotic minipump; assay type: in vivo, Nod/SCID mice; conditions: 15 μM, 0.5 μL/hr, one week, started 6 weeks after grafting, vs vehicle
Protocol: The ability of S10 to attenuate tumor progression was next examined in a mouse model for human GBM. Nod/SCID mice received intracranial injections of 100 000 U3013M GSCs and the resulting tumor was allowed to develop for 7 weeks. […] Tumors were highly immunoreactive for human Nestin (hNestin) and human GFAP (hGFAP). S10 (15 μM, 0.5 μL/hr) or vehicle (DMSO) was administered into the site of original cell deposit by an osmotic minipump 6 weeks after cells were grafted. Animals were collected for histological analysis following one week of treatment. […] A massive LAMP1 staining was observed within the tumor cell mass following one week S10 administration, with most or all cells displaying immunoreactivity while mice receiving vehicle were devoid of LAMP1.
GSCs were dissociated with trypsin, resuspended in PBS and kept on ice and the viability of cells were checked using trypan blue before and after the experiment. Surgery in mice was performed using sterile techniques, 6 to 8 week old NOD-SCID mice were anaesthetized using a mixture of isoflurane and oxygen. […] The mice were monitored for weight loss and signs of distress. […]

With OC(c1cc(-c2ccc(Cl)cc2)nc2ccccc12)C1CCCCN1 (racemic) [Compound S10, (2-(4-chlorophenyl)quinolin-4-yl)(piperidin-2-yl)methanol] the EC50 [1] was 14.3 ± 1.16 µM, the “loss of brain tissue by necrosis” value [2] was “markedly and significantly reduced” and the “tumor infiltration and area of hGFAP and hNestin immunoreactivity” value [2] was “significantly reduced”.
